The target of the test is T1, human recombinant LPA2 expressed in CHO cells (Homo sapiens, UniProt Q9HBW0).
T1 construct: expressed in transfected cells; host or cells: CHO cells (CHO-hLPA2 cell line)
The test is described as follows: FLIPR calcium mobilization assay, LPA2 antagonism in CHO-hLPA2 cells. Conditions: CHO-hLPA2 cells, inhibition of LPA EC80 Ca2+ response, 30 min pre-incubation; read-out: LPA2 IC50. The format is cell-based. The protocol:
The effectiveness of compounds of the present invention as LPA2 antagonist can be determined at the human recombinant LPA2 expressed in CHO cells, using a FLIPR assay in 384 well format.
CHO-hLPA2 cell lines are cultured in a humidified incubator at 5% C02 in DMEM/F-12 (1:1) MIXTURE with 2 mM Glutamax, supplemented with 10% of Foetal Bovine Serum, 1 mM Sodium Pyruvate, 11 mM Hepes and 1× Penicillin/Streptomycin. CHO hLPA2 cells are seeded into black walled clear-bottom 384-well plates (#781091, Greiner Bio-One GmbH) at a density of 7,500 cells per well in 50 μl culture media and grown overnight in a 37° C. humidified CO2-incubator. Serial dilutions (1:3 or 1:4, 11 points CRC) of compounds are performed in 100% DMSO at 200× the final concentration. The compounds are diluted 1:50 prior to the experiment with Assay Buffer (20 mM HEPES, 145 mM NaCl, 5 mM KCl, 5.5 mM glucose, 1 mM MgCl2 and 2 mM CaCl2, pH 7.4 containing 0.01% Pluronic F-127) to obtain a solution corresponding to […] the final concentration in the assay (4×, 2% DMSO). The final concentration of DMSO in the assay will be 0.5% in each well. Medium is removed by aspiration and cells are then incubated with 30 μl of a loading solution containing 5 μM of the cytoplasmic Ca2+ indicator Cal-520 AM in Assay Buffer containing 2.5 mM probenecid for 30 min at 37° C. incubator (cell loading). The loaded cell plates are transferred into the FLIPR instrument and calcium responses are monitored during the on-line addition protocols. For testing of compounds, after the cell loading, 10 μl/well of 4× antagonists' solution was added onto the cells. After 30 min pre-incubation (at 37° C.), 10 μl/well of 5× concentrated LPA EC80 was added and Ca2+ mobilization responses was followed during the on-line addition protocol. Intracellular peak fluorescence values subtracted by baseline fluorescence are exported and analysed to determine IC50 values, respectively. The calcium response is expressed as percentage of the maximal inhibition of the EC80 agonist response.
The raw data (peak height expressed as relative fluorescence units) are normalized and transformed into “percent of inhibition”. Curve fitting and pIC50 (−LogIC50) estimations are carried out using a four-parameter logistic model using XLfit Software.

The values below come from patent US20240190860A1, “8-CYCLO-SUBSTITUTED QUINAZOLINE DERIVATIVES AS LPA RECEPTOR 2 INHIBITORS” (CHIESI FARMACEUTICI S.p.A., priority 2021, published 2024).

T1 sequence (Q9HBW0 whole entry): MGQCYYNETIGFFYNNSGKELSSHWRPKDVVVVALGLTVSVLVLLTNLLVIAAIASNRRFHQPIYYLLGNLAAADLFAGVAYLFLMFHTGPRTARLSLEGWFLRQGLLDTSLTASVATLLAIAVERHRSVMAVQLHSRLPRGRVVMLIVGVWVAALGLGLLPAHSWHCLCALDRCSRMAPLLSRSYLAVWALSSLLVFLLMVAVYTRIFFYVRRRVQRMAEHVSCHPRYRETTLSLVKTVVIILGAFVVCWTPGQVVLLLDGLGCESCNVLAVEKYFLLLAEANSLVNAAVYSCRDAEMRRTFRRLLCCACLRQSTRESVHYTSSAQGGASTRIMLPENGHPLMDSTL

What is called IC50 is the concentration needed to halve the response being measured. For `COC(=O)Nc1nc(C)c(S(=O)(=O)N2CCN(C[C@H](C)Nc3ncnc4c(-c5cnc(C)cn5)cccc34)CC2)s1` [Example 2, methyl N-[4-methyl-5-({4-[(2S)-2-{[8-(5-methylpyrazin-2-yl)quinazolin-4-yl]amino}propyl]piperazin-1-yl}sulfonyl)-1,3-thiazol-2-yl]carbamate], the IC50 was 10 to 100 nM.

Regarding `COC(=O)Nc1nc(C)c(S(=O)(=O)N2CCN(C[C@H](C)Nc3ncnc4c(-c5cccnc5C)cccc34)CC2)s1` [Example 48, methyl N-[4-methyl-5-({4-[(2S)-2-{[8-(2-methylpyridin-3-yl)quinazolin-4-yl]amino}propyl]piperazin-1-yl}sulfonyl)-1,3-thiazol-2-yl]carbamate], the IC50 is below 10 nM.

Take `COC(=O)Nc1nc(C)c(S(=O)(=O)N2CCN(C[C@H](C)Nc3ncnc4c(-c5cncc(C=O)c5)cccc34)CC2)s1` [Example 87, methyl N-[5-({4-[(2S)-2-{[8-(5-formylpyridin-3-yl)quinazolin-4-yl]amino}propyl]piperazin-1-yl}sulfonyl)-4-methyl-1,3-thiazol-2-yl]carbamate]: the IC50 was below 10 nM.

As for `COC(=O)Nc1nc(C)c(S(=O)(=O)N2CCN(C[C@H](C)Nc3ncnc4c(-c5cnc(C)nc5)cccc34)CC2)s1` [Example 34, methyl N-[4-methyl-5-({4-[(2S)-2-{[8-(2-methylpyrimidin-5-yl)quinazolin-4-yl]amino}propyl]piperazin-1-yl}sulfonyl)-1,3-thiazol-2-yl]carbamate], the IC50 lay in the range of 10 to 100 nM.

With `Cc1cc(-c2cc(S(=O)(=O)N3CCN(C[C@H](C)Nc4ncnc5c(-c6cccc(CN(C)C)c6)cccc45)CC3)cs2)on1` [Example 93, 8-{3-[(dimethylamino)methyl]phenyl}-N-[(2S)-1-(4-{[5-(3-methyl-1,2-oxazol-5-yl)thiophen-3-yl]sulfonyl}piperazin-1-yl)propan-2-yl]quinazolin-4-amine], the IC50 was below 10 nM. On to `COC(=O)Nc1nc(C)c(S(=O)(=O)N2CCN(C[C@H](C)Nc3ncnc4c(-c5cccc(CN(C)C)c5C)cccc34)CC2)s1` [Example 89, methyl N-[5-({4-[(2S)-2-[(8-{3-[(dimethylamino)methyl]-2-methylphenyl}quinazolin-4-yl)amino]propyl]piperazin-1-yl}sulfonyl)-4-methyl-1,3-thiazol-2-yl]carbamate], for which the IC50 is below 10 nM. For the compound `Cc1cc(-c2ccc(S(=O)(=O)N3CCN(C[C@H](C)Nc4ncnc5c(-c6ccccc6)cccc45)CC3)s2)on1` [Example 4, N-[(2S)-1-(4-{[5-(3-methyl-1,2-oxazol-5-yl)thiophen-2-yl]sulfonyl}piperazin-1-yl)propan-2-yl]-8-phenylquinazolin-4-amine], the IC50 was below 10 nM. In the case of `C[C@@H](CN1CCN(S(=O)(=O)c2ccc3[nH]c(=O)[nH]c(=O)c3c2)CC1)Nc1ncnc2c(-c3cccnc3)cccc12` [Example 51, 6-({4-[(2S)-2-{[8-(pyridin-3-yl)quinazolin-4-yl]amino}propyl]piperazin-1-yl}sulfonyl)-1,2,3,4-tetrahydroquinazoline-2,4-dione], the IC50 was below 10 nM. In the case of `COC(=O)Nc1nc(C)c(S(=O)(=O)N2CCN(C[C@H](C)Nc3ncnc4c(-c5ccc(N)nc5)cccc34)CC2)s1` [Example 56, methyl N-[5-({4-[(2S)-2-{[8-(6-aminopyridin-3-yl)quinazolin-4-yl]amino}propyl]piperazin-1-yl}sulfonyl)-4-methyl-1,3-thiazol-2-yl]carbamate], the IC50 lay within 10 to 100 nM. To `COC(=O)Nc1nc(C)c(S(=O)(=O)N2CCN(C[C@H](C)Nc3ncnc4c(-c5cn(C)nc5C(F)(F)F)cccc34)CC2)s1` [Example 30, methyl N-[4-methyl-5-({4-[(2S)-2-({8-[1-methyl-3-(trifluoromethyl)-1H-pyrazol-4-yl]quinazolin-4-yl}amino)propyl]piperazin-1-yl}sulfonyl)-1,3-thiazol-2-yl]carbamate] belongs below 10 nM. To `Cc1cc(-c2ccc(S(=O)(=O)N3CCN(C[C@H](C)Nc4ncnc5c(-c6c(C)noc6C)cccc45)CC3)s2)on1` [Example 3, 8-(3,5-dimethyl-1,2-oxazol-4-yl)-N-[(2S)-1-(4-{[5-(3-methyl-1,2-oxazol-5-yl)thiophen-2-yl]sulfonyl}piperazin-1-yl)propan-2-yl]quinazolin-4-amine] belongs below 10 nM. Under `Cc1cc(-c2ccc(S(=O)(=O)N3CCN(C[C@H](C)Nc4ncnc5c(-c6cncnc6)cccc45)CC3)s2)on1` [Example 11, N-[(2S)-1-(4-{[5-(3-methyl-1,2-oxazol-5-yl)thiophen-2-yl]sulfonyl}piperazin-1-yl)propan-2-yl]-8-(pyrimidin-5-yl)quinazolin-4-amine] stands below 10 nM. For the compound `CC(=O)Nc1cc(F)c(S(=O)(=O)N2CCN(C[C@H](C)Nc3ncnc4c(-c5cccc(CN(C)C)c5)cccc34)CC2)cc1C` [Example 53, N-[4-({4-[(2S)-2-[(8-{3-[(dimethylamino)methyl]phenyl}quinazolin-4-yl)amino]propyl]piperazin-1-yl}sulfonyl)-5-fluoro-2-methylphenyl]acetamide], the IC50 is below 10 nM. Under `C[C@@H](CN1CCN(S(=O)(=O)c2ccc3c(c2)sc(=O)n3C)CC1)Nc1ncnc2c(-c3ccc(F)c(CN(C)C)c3)cccc12` [Example 96, 6-({4-[(2S)-2-[(8-{3-[(dimethylamino)methyl]-4-fluorophenyl}quinazolin-4-yl)amino]propyl]piperazin-1-yl}sulfonyl)-3-methyl-2,3-dihydro-1,3-benzothiazol-2-one] stands below 10 nM; under `Cc1cc(-c2ccc(S(=O)(=O)N3CCN(C[C@H](C)Nc4ncnc5c(-c6ccncc6)cccc45)CC3)s2)on1` [Example 8, N-[(2S)-1-(4-{[5-(3-methyl-1,2-oxazol-5-yl)thiophen-2-yl]sulfonyl}piperazin-1-yl)propan-2-yl]-8-(pyridin-4-yl)quinazolin-4-amine], below 10 nM; under `COC(=O)Nc1nc(C)c(S(=O)(=O)N2CCN(C[C@H](C)Nc3ncnc4c(-c5cccc(C)n5)cccc34)CC2)s1` [Example 71, methyl N-[4-methyl-5-({4-[(2S)-2-{[8-(6-methylpyridin-2-yl)quinazolin-4-yl]amino}propyl]piperazin-1-yl}sulfonyl)-1,3-thiazol-2-yl]carbamate], below 10 nM. Under `COC(=O)Nc1nc(C)c(S(=O)(=O)N2CCN(C[C@H](C)Nc3ncnc4c(-c5cncc(CN(C)C)c5)cccc34)CC2)s1` [Example 55, methyl N-[5-({4-[(2S)-2-[(8-{5-[(dimethylamino)methyl]pyridin-3-yl}quinazolin-4-yl)amino]propyl]piperazin-1-yl}sulfonyl)-4-methyl-1,3-thiazol-2-yl]carbamate] stands below 10 nM; under `COC(=O)Nc1nc(C)c(S(=O)(=O)N2CCN(C[C@H](C)Nc3ncnc4c(-c5cccc(CN6CCCC6)c5)cccc34)CC2)s1` [Example 22, methyl N-[4-methyl-5-({4-[(2S)-2-[(8-{3-[(pyrrolidin-1-yl)methyl]phenyl}quinazolin-4-yl)amino]propyl]piperazin-1-yl}sulfonyl)-1,3-thiazol-2-yl]carbamate], below 10 nM.

For `COC(=O)Nc1nc(C)c(S(=O)(=O)N2CCN(C[C@H](C)Nc3ncnc4c(-c5c(C)n[nH]c5C)cccc34)CC2)s1` [Example 27, methyl N-[5-({4-[(2S)-2-{[8-(3,5-dimethyl-1H-pyrazol-4-yl)quinazolin-4-yl]amino}propyl]piperazin-1-yl}sulfonyl)-4-methyl-1,3-thiazol-2-yl]carbamate], the concentration for half-maximal inhibition (IC50) is below 10 nM. To `C[C@@H](CN1CCN(S(=O)(=O)c2ccccn2)CC1)Nc1ncnc2c(-c3cn(C)nc3C(F)(F)F)cccc12` [Example 103, 8-[1-methyl-3-(trifluoromethyl)-1H-pyrazol-4-yl]-N-[(2S)-1-[4-(pyridine-2-sulfonyl)piperazin-1-yl]propan-2-yl]quinazolin-4-amine] belongs 10 to 100 nM; to `CC(=O)Nc1ncc(S(=O)(=O)N2CCN(C[C@H](C)Nc3ncnc4c(-c5cccnc5)cccc34)CC2)s1` [Example 37, N-[5-({4-[(2S)-2-{[8-(pyridin-3-yl)quinazolin-4-yl]amino}propyl]piperazin-1-yl}sulfonyl)-1,3-thiazol-2-yl]acetamide], below 10 nM. Under `COCC(=O)Nc1ncc(S(=O)(=O)N2CCN(C[C@H](C)Nc3ncnc4c(-c5cccnc5)cccc34)CC2)s1` [Example 49, 2-methoxy-N-[5-({4-[(2S)-2-{[8-(pyridin-3-yl)quinazolin-4-yl]amino}propyl]piperazin-1-yl}sulfonyl)-1,3-thiazol-2-yl]acetamide] stands 10 to 100 nM.
